Test results reported in US9434724B2, “Quinuclidines for modulating alpha 7 activity” (priority 2014, dated 2016).
Read-outs that look alike come from different tables or passages of the source.

Assays:
[1] = molecular target: CYP2D6 (Homo sapiens (Human), UniProt P10635); test: Cytochrome P450 inhibition in human liver microsomes, CYP2D6
[2] = molecular target: CYP1A2 (Homo sapiens (Human), UniProt P05177); test: Cytochrome P450 inhibition in human liver microsomes, CYP1A2
[3] = molecular target: T1, CYP2C19 (Homo sapiens (Human), UniProt P33261); settings: microsomes
T1 sequence (P33261 whole entry): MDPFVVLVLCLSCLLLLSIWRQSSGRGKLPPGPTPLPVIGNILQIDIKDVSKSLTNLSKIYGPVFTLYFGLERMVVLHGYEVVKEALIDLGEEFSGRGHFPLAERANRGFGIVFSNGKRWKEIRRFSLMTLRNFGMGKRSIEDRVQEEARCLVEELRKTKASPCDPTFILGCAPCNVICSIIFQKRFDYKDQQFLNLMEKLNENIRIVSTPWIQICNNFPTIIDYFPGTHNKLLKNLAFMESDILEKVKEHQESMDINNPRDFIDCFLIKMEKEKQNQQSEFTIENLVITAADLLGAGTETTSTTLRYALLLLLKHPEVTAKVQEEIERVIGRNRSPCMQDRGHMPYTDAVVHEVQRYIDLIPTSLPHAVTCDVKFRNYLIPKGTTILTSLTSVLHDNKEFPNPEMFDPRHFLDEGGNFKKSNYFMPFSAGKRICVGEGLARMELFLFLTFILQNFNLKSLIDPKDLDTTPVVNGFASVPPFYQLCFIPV

[4] = Metabolic stability assay in rat liver microsomes (RLM); type: in vitro ADME; settings: 1 μM
Outline: (§1)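 In Protocol 1, compound was 1 μM final with NADPH at 37 °C, sampled at 0–45 min. In Protocol 2, 1.5 μM compound with 0.75 mg/mL microsomes (pre-NADPH mix) in 0.1 M potassium phosphate, 1 mM EDTA, pH 7.4 was pre-incubated 10 min, then NADPH started the reaction. Both: LC-MS/MS % remaining versus time 0, half-life from single-phase exponential fit.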

[5] = molecular target: rat brain nicotinic receptor (α7 NAChR) (Rattus norvegicus (Rat), UniProt Q05941); type: binding
Chain of rat brain nicotinic receptor (α7 NAChR) (Q05941 23-502 limits assumed): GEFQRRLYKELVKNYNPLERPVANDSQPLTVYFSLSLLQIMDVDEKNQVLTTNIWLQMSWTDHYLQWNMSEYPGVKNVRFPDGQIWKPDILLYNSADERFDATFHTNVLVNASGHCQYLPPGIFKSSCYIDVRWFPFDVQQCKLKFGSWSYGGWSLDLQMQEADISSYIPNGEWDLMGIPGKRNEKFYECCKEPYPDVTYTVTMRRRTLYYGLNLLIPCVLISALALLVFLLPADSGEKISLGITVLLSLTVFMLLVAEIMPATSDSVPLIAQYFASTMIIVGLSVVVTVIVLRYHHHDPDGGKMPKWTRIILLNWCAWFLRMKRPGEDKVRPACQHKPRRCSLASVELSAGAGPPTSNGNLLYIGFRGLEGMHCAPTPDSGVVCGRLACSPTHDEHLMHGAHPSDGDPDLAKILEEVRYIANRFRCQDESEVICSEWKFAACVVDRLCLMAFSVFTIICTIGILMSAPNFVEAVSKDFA

[6] = Metabolic stability assay in human liver microsomes (HLM); type: in vitro ADME; settings: 1 μM
Outline: as §1

[7] = molecular target: T1, CYP2C19; test: Cytochrome P450 inhibition in human liver microsomes, CYP2C19; settings: read-out: 2C19 IC50, Protocol 1
[8] = Human plasma stability; type: in vitro ADME; settings: plasma; for % Remaining @ 2 h: 5 μM
Outline: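 Compound remaining was quantified by LC-MS/MS as peak-area ratio to internal standard relative to time 0, with half-lives from single-exponential fits. Protocol 1 incubated 1 μM in heparinized human plasma (pH 7.4, 37° C) to 120 min; protocol 2 used 5 μM, pH 7.4–8.0, 37° C, n=2, to 120 min.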

[9] = molecular target: CYP2C9 (Homo sapiens (Human), UniProt P11712); test: Cytochrome P450 inhibition in human liver microsomes, CYP2C9; settings: read-out: 2C9 IC50, Protocol 1
Chain of CYP2C9 (P11712 whole entry): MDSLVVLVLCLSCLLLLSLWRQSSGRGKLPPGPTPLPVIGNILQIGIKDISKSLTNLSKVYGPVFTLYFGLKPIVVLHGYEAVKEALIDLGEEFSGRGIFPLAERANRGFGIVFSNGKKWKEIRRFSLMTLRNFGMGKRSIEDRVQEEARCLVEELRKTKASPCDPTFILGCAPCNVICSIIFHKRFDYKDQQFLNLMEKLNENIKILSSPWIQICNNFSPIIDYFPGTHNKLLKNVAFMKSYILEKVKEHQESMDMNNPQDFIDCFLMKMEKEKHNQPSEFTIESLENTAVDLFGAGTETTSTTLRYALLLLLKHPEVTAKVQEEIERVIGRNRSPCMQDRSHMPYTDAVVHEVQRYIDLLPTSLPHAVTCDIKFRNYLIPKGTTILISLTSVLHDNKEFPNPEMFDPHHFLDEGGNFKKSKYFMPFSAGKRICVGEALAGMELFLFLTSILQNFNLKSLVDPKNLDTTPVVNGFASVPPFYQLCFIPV

[10] = molecular target: T2, CYP3A4 (Homo sapiens (Human), UniProt P08684); settings: microsomes, 5 min
T2 sequence (P08684 whole entry): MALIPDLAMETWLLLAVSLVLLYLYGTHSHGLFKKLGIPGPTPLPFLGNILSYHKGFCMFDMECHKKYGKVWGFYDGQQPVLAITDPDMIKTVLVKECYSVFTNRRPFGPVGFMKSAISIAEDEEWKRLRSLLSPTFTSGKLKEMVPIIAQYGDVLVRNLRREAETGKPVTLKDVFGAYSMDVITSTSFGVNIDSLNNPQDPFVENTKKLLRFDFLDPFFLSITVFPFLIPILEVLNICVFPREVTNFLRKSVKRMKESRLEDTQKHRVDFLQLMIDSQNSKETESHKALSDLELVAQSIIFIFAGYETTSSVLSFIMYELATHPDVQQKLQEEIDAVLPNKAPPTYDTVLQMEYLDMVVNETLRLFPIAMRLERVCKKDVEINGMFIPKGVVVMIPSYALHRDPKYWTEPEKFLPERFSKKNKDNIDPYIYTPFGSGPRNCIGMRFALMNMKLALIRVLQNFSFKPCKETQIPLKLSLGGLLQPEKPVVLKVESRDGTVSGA

[11] = molecular target: T2, CYP3A4; test: Cytochrome P450 inhibition in human liver microsomes, CYP3A4
[12] = read-out: 3A4 IC50 (Midazolam), substrate midazolam, Protocol 1
[13] = read-out: 3A4 IC50 (Testosterone), substrate testosterone, Protocol 1

Chain of CYP1A2 (P05177 whole entry): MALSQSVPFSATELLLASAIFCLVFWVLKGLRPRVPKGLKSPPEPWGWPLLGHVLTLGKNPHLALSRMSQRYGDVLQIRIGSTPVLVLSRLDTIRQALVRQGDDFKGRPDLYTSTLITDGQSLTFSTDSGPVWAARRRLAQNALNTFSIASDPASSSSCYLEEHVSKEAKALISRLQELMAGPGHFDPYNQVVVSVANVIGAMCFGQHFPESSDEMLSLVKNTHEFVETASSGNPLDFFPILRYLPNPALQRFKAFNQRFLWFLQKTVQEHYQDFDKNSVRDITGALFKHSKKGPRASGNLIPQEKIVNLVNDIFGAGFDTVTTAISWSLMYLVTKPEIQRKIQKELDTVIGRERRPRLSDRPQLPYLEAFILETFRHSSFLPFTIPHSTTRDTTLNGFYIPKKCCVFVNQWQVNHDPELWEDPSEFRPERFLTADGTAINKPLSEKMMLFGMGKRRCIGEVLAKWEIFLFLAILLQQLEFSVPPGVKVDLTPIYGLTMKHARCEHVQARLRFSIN
Chain of CYP2D6 (P10635 whole entry): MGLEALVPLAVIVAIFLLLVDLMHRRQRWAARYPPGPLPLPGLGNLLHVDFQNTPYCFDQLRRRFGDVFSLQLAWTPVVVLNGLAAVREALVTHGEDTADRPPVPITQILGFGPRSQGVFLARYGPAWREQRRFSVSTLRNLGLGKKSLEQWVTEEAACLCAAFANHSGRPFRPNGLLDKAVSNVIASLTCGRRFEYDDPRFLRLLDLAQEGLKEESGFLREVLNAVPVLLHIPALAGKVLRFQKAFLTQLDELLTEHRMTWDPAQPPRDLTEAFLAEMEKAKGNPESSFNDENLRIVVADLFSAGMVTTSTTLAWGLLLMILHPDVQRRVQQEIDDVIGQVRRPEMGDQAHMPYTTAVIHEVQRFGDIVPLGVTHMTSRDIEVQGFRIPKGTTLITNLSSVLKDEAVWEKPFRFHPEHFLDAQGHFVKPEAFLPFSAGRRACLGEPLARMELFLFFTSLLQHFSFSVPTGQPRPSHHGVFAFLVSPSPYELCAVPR

Row | Compound | IC50 [5] [µM] | Ki [5] [µM] | IC50 [7] [µM] | T1/2 ([8]; human) | % Remaining @ 2 h ([8]; human, 2 h) [%] | IC50 ([2]; read-out: 1A2 IC50, Protocol 1) [µM] | RLM ([4]; rat, microsomes) [mL/min/kg] | IC50 [9] [µM] | HLM ([6]; human, microsomes) [mL/min/kg] | IC50 [10] [µM] | IC50 ([3]; 45 min) [µM] | also measured
1 | Cc1cccc2c(C(=O)OCC34CCN(CC3)CC4)c[nH]c12 [Compound 19, quinuclidin-4-ylmethyl 7-methyl-1H-indole-3-carboxylate] | 0.764 | 0.665 | – | – | – | – | – | – | – | – | – | IC50 ([1]; read-out: 2D6 IC50, Protocol 2): > 10 µM; IC50 ([2]; read-out: 1A2 IC50, Protocol 2): > 10 µM; IC50 [3]: > 10 µM; RLM ([4]; rat, microsomes, pH 7.4): 280.991 mL/min/kg; HLM ([6]; human, microsomes, pH 7.4): <13.608 mL/min/kg
2 | COc1cc(C)c2c(C(=O)OCC34CCN(CC3)CC4)c[nH]c2c1 [Compound 37, quinuclidin-4-ylmethyl 6-methoxy-4-methyl-1H-indole-3-carboxylate] | – | – | > 10 | ∞ | 108.49 | > 10 | 33.07 | > 10 | 20.18 | > 10 | – | –
3 | COc1cc(Cl)c2c(C(=O)OCC34CCN(CC3)CC4)c[nH]c2c1 [Compound 38, quinuclidin-4-ylmethyl 4-chloro-6-methoxy-1H-indole-3-carboxylate] | 0.396 | 0.341 | – | ∞ | 96.52 | > 10 | 76.79 | – | 8.15 | > 10 | > 10 | –
4 | O=C(OCC12CCN(CC1)CC2)c1c[nH]c2cc(F)cc(Br)c12 [Compound 41, quinuclidin-4-ylmethyl 4-bromo-6-fluoro-1H-indole-3-carboxylate] | 0.76 | 0.655 | > 10 | ∞ | 120.27 | > 10 | 86.59 | > 10 | 7.55 | > 10 | – | –
5 | O=C(OCC12CCN(CC1)CC2)c1c[nH]c2cc(Cl)cc(Br)c12 [Compound 42, quinuclidin-4-ylmethyl 4-bromo-6-chloro-1H-indole-3-carboxylate] | – | – | > 10 | – | 72.21 | > 10 | 55.27 | > 10 | 12.43 | > 10 | – | –
6 | Cc1ccc2c(C(=O)OCC34CCN(CC3)CC4)c[nH]c2c1.Cl [Compound 45, Quinuclidin-4-ylmethyl 6-methyl-1H-indole-3-carboxylate hydrochloride] | 0.0736 | 0.0631 | > 10 | – | – | > 10 | – | > 10 | – | – | – | IC50 [11, 12]: > 10 µM; IC50 [11, 13]: > 10 µM; % Remaining @ 2 h ([8]; Protocol No. 2, 37° C.): 47.32%; IC50 ([1]; read-out: 2D6 IC50, Protocol 1): > 10 µM; RLM ([4]; Protocol No. 1, rat liver microsomes): 170.981 mL/min/kg; HLM ([6]; Protocol No. 1, human liver microsomes): 2.976 mL/min/kg
7 | COc1ccc2[nH]cc(C(=O)OCC34CCN(CC3)CC4)c2c1Br [Compound 47, quinuclidin-4-ylmethyl 4-bromo-5-methoxy-1H-indole-3-carboxylate] | 0.0333 | 0.0285 | – | – | 72.43 | > 10 | 541.358 | – | 13.5926 | > 10 | > 10 | –
8 | COc1cc(Br)c2c(C(=O)OCC34CCN(CC3)CC4)c[nH]c2c1 [Compound 48, quinuclidin-4-ylmethyl 4-bromo-6-methoxy-1H-indole-3-carboxylate] | 0.42 | 0.36 | – | – | 101.03 | > 10 | 69.1781 | – | 7.539 | – | > 10 | IC50 [11, 12]: > 10 µM; IC50 [11, 13]: > 10 µM; IC50 ([1]; read-out: 2D6 IC50, Protocol 1): > 10 µM
9 | Cc1cc(Br)c2c(C(=O)OCC34CCN(CC3)CC4)c[nH]c2c1 [Compound 49, quinuclidin-4-ylmethyl 4-bromo-6-methyl-1H-indole-3-carboxylate] | 0.25 | 0.214 | – | – | 93.39 | > 10 | 254.566 | – | 5.963 | > 10 | > 10 | –
